In the NIST ThermoML archive (doi:10.1021/je500647a):
Numbers after ± are expanded uncertainties.

Assay: mn = molality of the nth substance listed, in mol/kg
Settings: 101 kPa, Liquid, Capillary tube (Ostwald / Ubbelohde) method

Molecule `OC[C@H]1OC(OC[C@H]2OC(O[C@]3(CO)O[C@H](CO)[C@@H](O)[C@@H]3O)[C@H](O)[C@@H](O)[C@@H]2O)[C@H](O)[C@@H](O)[C@H]1O` (stereo partly drawn) [D-(+)-raffinose] + O has a viscosity (293.15 K, m1 = 0.05) of 1.056 ± 0.01 mPa·s, a viscosity (293.15 K, m1 = 0.055) of 1.061 ± 0.01 mPa·s and a viscosity (293.15 K, m1 = 0.06) of 1.066 ± 0.0095 mPa·s. For the same molecule, the viscosity (293.15 K, m1 = 0.065) was 1.071 ± 0.0083 mPa·s, the viscosity (293.15 K, m1 = 0.07) was 1.079 ± 0.0083 mPa·s and the viscosity (293.15 K, m1 = 0.075) was 1.087 ± 0.0094 mPa·s. It also gave a viscosity (293.15 K, m1 = 0.08) of 1.095 ± 0.012 mPa·s, a viscosity (293.15 K, m1 = 0.085) of 1.101 ± 0.011 mPa·s and a viscosity (293.15 K, m1 = 0.09) of 1.108 ± 0.02 mPa·s. It also gave a viscosity (293.15 K, m1 = 0.1) of 1.118 ± 0.01 mPa·s, a viscosity (298.15 K, m1 = 0.05) of 0.9281 ± 0.0077 mPa·s and a viscosity (298.15 K, m1 = 0.055) of 0.9343 ± 0.0077 mPa·s. The viscosity (298.15 K, m1 = 0.06) was 0.94 ± 0.0097 mPa·s, the viscosity (298.15 K, m1 = 0.065) was 0.9448 ± 0.0097 mPa·s and the viscosity (298.15 K, m1 = 0.07) was 0.9488 ± 0.0095 mPa·s. It also gave a viscosity (298.15 K, m1 = 0.075) of 0.9553 ± 0.01 mPa·s, a viscosity (298.15 K, m1 = 0.08) of 0.9597 ± 0.01 mPa·s and a viscosity (298.15 K, m1 = 0.085) of 0.9674 ± 0.0096 mPa·s. It also gave a viscosity (298.15 K, m1 = 0.09) of 0.9724 ± 0.01 mPa·s, a viscosity (298.15 K, m1 = 0.1) of 0.9824 ± 0.013 mPa·s and a viscosity (303.15 K, m1 = 0.05) of 0.8259 ± 0.0072 mPa·s. It also gave a viscosity (303.15 K, m1 = 0.055) of 0.8302 ± 0.0074 mPa·s, a viscosity (303.15 K, m1 = 0.06) of 0.8349 ± 0.0087 mPa·s and a viscosity (303.15 K, m1 = 0.065) of 0.8402 ± 0.0088 mPa·s. For the same molecule, the viscosity (303.15 K, m1 = 0.07) was 0.8435 ± 0.0086 mPa·s, the viscosity (303.15 K, m1 = 0.075) was 0.8485 ± 0.0086 mPa·s and the viscosity (303.15 K, m1 = 0.08) was 0.8521 ± 0.0091 mPa·s. The viscosity (303.15 K, m1 = 0.085) was 0.8569 ± 0.0088 mPa·s, the viscosity (303.15 K, m1 = 0.09) was 0.8631 ± 0.0092 mPa·s and the viscosity (303.15 K, m1 = 0.1) was 0.8719 ± 0.011 mPa·s. For the same molecule, the viscosity (308.15 K, m1 = 0.05) was 0.7393 ± 0.0068 mPa·s, the viscosity (308.15 K, m1 = 0.055) was 0.7424 ± 0.007 mPa·s and the viscosity (308.15 K, m1 = 0.06) was 0.7474 ± 0.0079 mPa·s. The viscosity (308.15 K, m1 = 0.065) was 0.7516 ± 0.0081 mPa·s, the viscosity (308.15 K, m1 = 0.07) was 0.7547 ± 0.0079 mPa·s and the viscosity (308.15 K, m1 = 0.075) was 0.7585 ± 0.0079 mPa·s. It also gave a viscosity (308.15 K, m1 = 0.08) of 0.7625 ± 0.008 mPa·s, a viscosity (308.15 K, m1 = 0.085) of 0.7663 ± 0.0078 mPa·s and a viscosity (308.15 K, m1 = 0.09) of 0.77 ± 0.008 mPa·s. For the same molecule, the viscosity (308.15 K, m1 = 0.1) was 0.7775 ± 0.01 mPa·s, the viscosity (313.15 K, m1 = 0.05) was 0.6657 ± 0.0075 mPa·s and the viscosity (313.15 K, m1 = 0.055) was 0.6688 ± 0.0076 mPa·s. It also gave a viscosity (313.15 K, m1 = 0.06) of 0.673 ± 0.008 mPa·s, a viscosity (313.15 K, m1 = 0.065) of 0.6764 ± 0.0086 mPa·s and a viscosity (313.15 K, m1 = 0.07) of 0.6792 ± 0.011 mPa·s. It also gave a viscosity (313.15 K, m1 = 0.075) of 0.6822 ± 0.0063 mPa·s, a viscosity (313.15 K, m1 = 0.08) of 0.6857 ± 0.0074 mPa·s and a viscosity (313.15 K, m1 = 0.085) of 0.6881 ± 0.0073 mPa·s. The viscosity (313.15 K, m1 = 0.09) was 0.6925 ± 0.011 mPa·s and the viscosity (313.15 K, m1 = 0.1) was 0.698 ± 0.0071 mPa·s.

`CC(C)C[C@H](N)C(=O)O` [L-leucine] + O showed a viscosity (293.15 K, m1 = 0.025) of 1.02 ± 0.0085 mPa·s, a viscosity (293.15 K, m1 = 0.05) of 1.022 ± 0.0082 mPa·s and a viscosity (293.15 K, m1 = 0.1) of 1.026 ± 0.0085 mPa·s. It also gave a viscosity (298.15 K, m1 = 0.025) of 0.8932 ± 0.0073 mPa·s, a viscosity (298.15 K, m1 = 0.05) of 0.8936 ± 0.0073 mPa·s and a viscosity (298.15 K, m1 = 0.1) of 0.8992 ± 0.0075 mPa·s. For the same molecule, the viscosity (303.15 K, m1 = 0.025) was 0.7948 ± 0.0068 mPa·s, the viscosity (303.15 K, m1 = 0.05) was 0.8021 ± 0.0069 mPa·s and the viscosity (303.15 K, m1 = 0.1) was 0.8011 ± 0.0068 mPa·s. The viscosity (308.15 K, m1 = 0.025) was 0.7187 ± 0.0064 mPa·s, the viscosity (308.15 K, m1 = 0.05) was 0.7237 ± 0.0064 mPa·s and the viscosity (308.15 K, m1 = 0.1) was 0.7223 ± 0.0064 mPa·s. For the same molecule, the viscosity (313.15 K, m1 = 0.025) was 0.6481 ± 0.0061 mPa·s, the viscosity (313.15 K, m1 = 0.05) was 0.6571 ± 0.0062 mPa·s and the viscosity (313.15 K, m1 = 0.1) was 0.6533 ± 0.0062 mPa·s.

`NCC(=O)O` [2-aminoacetic acid] + O gave a viscosity (293.15 K, m1 = 0.025) of 1.011 ± 0.0083 mPa·s, a viscosity (293.15 K, m1 = 0.05) of 1.016 ± 0.0082 mPa·s and a viscosity (293.15 K, m1 = 0.1) of 1.022 ± 0.0082 mPa·s. For the same molecule, the viscosity (298.15 K, m1 = 0.025) was 0.8923 ± 0.0072 mPa·s, the viscosity (298.15 K, m1 = 0.05) was 0.8947 ± 0.0073 mPa·s and the viscosity (298.15 K, m1 = 0.1) was 0.9011 ± 0.0075 mPa·s. It also gave a viscosity (303.15 K, m1 = 0.025) of 0.7994 ± 0.0068 mPa·s, a viscosity (303.15 K, m1 = 0.05) of 0.8017 ± 0.0068 mPa·s and a viscosity (303.15 K, m1 = 0.1) of 0.8056 ± 0.0068 mPa·s. It also gave a viscosity (308.15 K, m1 = 0.025) of 0.7201 ± 0.0064 mPa·s, a viscosity (308.15 K, m1 = 0.05) of 0.7213 ± 0.0064 mPa·s and a viscosity (308.15 K, m1 = 0.1) of 0.7236 ± 0.0064 mPa·s. The viscosity (313.15 K, m1 = 0.025) was 0.6549 ± 0.0061 mPa·s, the viscosity (313.15 K, m1 = 0.05) was 0.6563 ± 0.0061 mPa·s and the viscosity (313.15 K, m1 = 0.1) was 0.6582 ± 0.0061 mPa·s.

`O=C[C@H](O)[C@H](O)[C@H](O)CO` [D-ribose] + O gave a viscosity (293.15 K, m1 = 0.05) of 1.019 ± 0.0084 mPa·s, a viscosity (293.15 K, m1 = 0.055) of 1.021 ± 0.0083 mPa·s and a viscosity (293.15 K, m1 = 0.06) of 1.022 ± 0.012 mPa·s. For the same molecule, the viscosity (293.15 K, m1 = 0.065) was 1.024 ± 0.016 mPa·s, the viscosity (293.15 K, m1 = 0.07) was 1.026 ± 0.0082 mPa·s and the viscosity (293.15 K, m1 = 0.075) was 1.027 ± 0.013 mPa·s. It also gave a viscosity (293.15 K, m1 = 0.08) of 1.029 ± 0.0084 mPa·s, a viscosity (293.15 K, m1 = 0.085) of 1.031 ± 0.0085 mPa·s and a viscosity (293.15 K, m1 = 0.09) of 1.033 ± 0.0093 mPa·s. The viscosity (293.15 K, m1 = 0.1) was 1.035 ± 0.0084 mPa·s, the viscosity (298.15 K, m1 = 0.05) was 0.9032 ± 0.0076 mPa·s and the viscosity (298.15 K, m1 = 0.055) was 0.9047 ± 0.0076 mPa·s. It also gave a viscosity (298.15 K, m1 = 0.06) of 0.906 ± 0.0074 mPa·s, a viscosity (298.15 K, m1 = 0.065) of 0.9073 ± 0.0074 mPa·s and a viscosity (298.15 K, m1 = 0.07) of 0.9085 ± 0.0074 mPa·s. It also gave a viscosity (298.15 K, m1 = 0.075) of 0.91 ± 0.0074 mPa·s, a viscosity (298.15 K, m1 = 0.08) of 0.9114 ± 0.0075 mPa·s and a viscosity (298.15 K, m1 = 0.085) of 0.9127 ± 0.0074 mPa·s. It also gave a viscosity (298.15 K, m1 = 0.09) of 0.9143 ± 0.0074 mPa·s, a viscosity (298.15 K, m1 = 0.1) of 0.9168 ± 0.0092 mPa·s and a viscosity (303.15 K, m1 = 0.05) of 0.8071 ± 0.007 mPa·s. The viscosity (303.15 K, m1 = 0.055) was 0.8082 ± 0.007 mPa·s, the viscosity (303.15 K, m1 = 0.06) was 0.8092 ± 0.0069 mPa·s and the viscosity (303.15 K, m1 = 0.065) was 0.8101 ± 0.0069 mPa·s. For the same molecule, the viscosity (303.15 K, m1 = 0.07) was 0.8113 ± 0.0069 mPa·s, the viscosity (303.15 K, m1 = 0.075) was 0.8125 ± 0.0069 mPa·s and the viscosity (303.15 K, m1 = 0.08) was 0.8135 ± 0.0069 mPa·s. For the same molecule, the viscosity (303.15 K, m1 = 0.085) was 0.8146 ± 0.0069 mPa·s, the viscosity (303.15 K, m1 = 0.09) was 0.8157 ± 0.0069 mPa·s and the viscosity (303.15 K, m1 = 0.1) was 0.8183 ± 0.0083 mPa·s. It also gave a viscosity (308.15 K, m1 = 0.05) of 0.7261 ± 0.0065 mPa·s, a viscosity (308.15 K, m1 = 0.055) of 0.727 ± 0.0065 mPa·s and a viscosity (308.15 K, m1 = 0.06) of 0.7277 ± 0.0064 mPa·s. It also gave a viscosity (308.15 K, m1 = 0.065) of 0.7286 ± 0.0064 mPa·s, a viscosity (308.15 K, m1 = 0.07) of 0.7292 ± 0.0065 mPa·s and a viscosity (308.15 K, m1 = 0.075) of 0.7302 ± 0.0065 mPa·s. It also gave a viscosity (308.15 K, m1 = 0.08) of 0.7313 ± 0.0065 mPa·s, a viscosity (308.15 K, m1 = 0.085) of 0.7321 ± 0.0065 mPa·s and a viscosity (308.15 K, m1 = 0.09) of 0.7333 ± 0.0065 mPa·s. The viscosity (308.15 K, m1 = 0.1) was 0.7353 ± 0.0073 mPa·s, the viscosity (313.15 K, m1 = 0.05) was 0.657 ± 0.0061 mPa·s and the viscosity (313.15 K, m1 = 0.055) was 0.6576 ± 0.0061 mPa·s. It also gave a viscosity (313.15 K, m1 = 0.06) of 0.6581 ± 0.0087 mPa·s, a viscosity (313.15 K, m1 = 0.065) of 0.6587 ± 0.017 mPa·s and a viscosity (313.15 K, m1 = 0.07) of 0.6595 ± 0.0065 mPa·s. For the same molecule, the viscosity (313.15 K, m1 = 0.075) was 0.6601 ± 0.0093 mPa·s, the viscosity (313.15 K, m1 = 0.08) was 0.6607 ± 0.0061 mPa·s and the viscosity (313.15 K, m1 = 0.085) was 0.6616 ± 0.0062 mPa·s. It also gave a viscosity (313.15 K, m1 = 0.09) of 0.6626 ± 0.0087 mPa·s and a viscosity (313.15 K, m1 = 0.1) of 0.6642 ± 0.0062 mPa·s.
